# Results taken from patent US20250051278A1, “[…]” (Reunion Neuroscience, Inc., priority 2021, published 2025).
# Experiments:
# [1] = Subjective effects in human volunteers (standardized questionnaires); assay type: in vivo
# Protocol: The compound from example 6 (N,N diisopropyltryptamine-4-glutarate) is administered to human volunteers by subcutaneous injection of a sterile solution (1 mg/ml) at a dosage of 0.1-0.6 mg/kg. Blood samples are taken at 5, 15, 30, 45, 60, 120, 240 and 480 min and 24 h. Samples are analyzed by LCMS for drug and prodrug. Subjective effects are measured using standardized questionnaires.
# The compound from example 2 (4-hemisuccinate of 4-OH-DiPT) is administered to human volunteers by oral ingestion of a tablet containing 50 mg of the prodrug. Blood samples are taken at 5, 15, 30, 45, 60, 120, 240 and 480 min and 24 h. Samples are analyzed by LCMS for drug and prodrug. Subjective effects are measured using standardized questionnaires.
# [2] = Head Twitch Response (HTR) or Wet Dog Shakes (WDS) by visual observation; assay type: in vivo; settings: rats; highest intensity of head twitch at the Tmax of the PK profile
# Protocol: In some cases, Head Twitch Response (HTR) or Wet Dog Shakes (WDS) were recorded by visual observation and counting of the relevant muscle twitches.
# [3] = Prodrug hydrolysis in mouse plasma at 37° C; assay type: in vitro ADME; settings: 1.0 ug/mL
# Protocol: (§1) Pooled mixed gender human plasma (2 ml), mouse plasma, rat plasma and dog plasma were equilibrated at 37° C. The compound of example 9 was added so as to achieve a concentration of 1.0 ug/mL. Aliquots (50 uL) of the mixture were withdrawn at timed intervals (0, 0.004, 0.5, 1, 2 and 4 hours) and quenched with 200 μL of methanol/acetonitrile (1:1). The samples were vortexed and stored at −80° C. until analysis. Assays were done in triplicate. Control samples were done in phosphate buffered saline (PBS, pH 7.4) and simulated gastric fluid (SGF, pH 2). Analysis of samples as performed by HPLC-MS to determine the amounts of prodrug and drug in each sample tested. Table 1 provides the mean concentrations of prodrug remaining at different time points of the experiment.
# [4] = Prodrug hydrolysis in rat plasma at 37° C; assay type: in vitro ADME; settings: 1.0 ug/mL
# Protocol: as §1
# [5] = Prodrug hydrolysis in dog plasma at 37° C; assay type: in vitro ADME; settings: 1.0 ug/mL
# Protocol: as §1
# [6] = Prodrug hydrolysis in pooled mixed gender human plasma at 37° C; assay type: in vitro ADME; settings: 1.0 ug/mL
# Protocol: as §1
# [7] = Control hydrolysis in simulated gastric fluid (SGF, pH 2); assay type: physicochemical; settings: SGF (pH2)
# Protocol: as §1
# [8] = Control hydrolysis in phosphate buffered saline (PBS, pH 7.4); assay type: physicochemical; settings: PBS (pH7)
# Protocol: as §1
# [9] = Solubility in water; assay type: physicochemical; settings: thermodynamic from solid; HCl salt solid dissolved in water
# Protocol: The structure was confirmed by NMR. Purity was determined by HPLC (>97%). The solid was resuspended in 1M HCl-dioxane to form the HCl salt which was filtered, washed with ether and dried. Yield (>95%, purity >95%; DSC endotherm 174C). The solid could be dissolved in water up to 50 mg/ml and lyophilized to form a white “cake”.
# [10] = Use in treatment of a human patient suffering depression; assay type: in vivo; settings: i.m. or s.c. injection ca. 25 mg or oral ca. 50-200 mg
# Protocol: The compound of example 6 (N,N diisopropyltryptamine-4-glutarate) is administered by i.m. or s.c. injection (ca. 25 mg; 0.4-0.5 mg/kg) to a human patient suffering depression, or by oral administration (ca. 50-200 mg; 0.8-3.2 mg/kg) with tablets. In another example of use, the compound of example 6 (4-hemiglutarate of 4-OH-DiPT) is similarly administered. Prior to the dosing session, the patient is qualified for the experience by measurement of depression scores, screened for exclusions (e.g. history of psychoses, unfavorable heart condition, pregnancy) and finally, the patient is encouraged to formulate an intent for the dosing session. Dosing is performed in a quiet clinic setting with the patient resting comfortably in an inclined, but unrestrained, position to avoid falls. The patients' eyes are covered, and music is applied. The drug is administered. After 4 h, the patient reports no longer feeling the effects of the drug and is asked to sit up while under supervision. Feeling normal, the patient is allowed to stand (supervised) and feeling in control, is allowed to move around. One hour later, the patient is discharged. Later by 24 h, the patient returns to the clinic to meet with a psychotherapist to recount the session. The patient records a depression score via questionnaire and is again discharged. […]
# [11] = Pharmacokinetics in rats (intravenous and subcutaneous injection); assay type: in vivo; settings: i.v. and s.c., 1.4-2 mg/kg, LCMS, rapidly converted to the active form
# Protocol: The compound from example 9 was administered to rats by injection (intravenous and subcutaneous) with a sterile solution (2 mg/ml) at a rate of 1.4-2 mg/kg. Blood samples were taken at 15, 30, 45, 60, 120, 240 min and 360 min and analyzed by LCMS for drug and prodrug. PK profile for the prodrug and active species were obtained and relative bioavailability was determined for each of the routes of administration.
# Pharmacokinetics of 1.34 mg/ml 4-HO-DiPT HCl administered by intravenous or subcutaneous injection were performed in parallel under identical conditions as above. […] Immediately obvious is the increased variability with the active species when administered s.c. and intravenous administrations.
compound,measurement,setting,value
"CC(C)N(CCc1c[nH]c2cccc(OC(=O)CCC(=O)O)c12)C(C)C [Example 2, N,N diisopropyltryptamine-4-succinate]",Subjective effects: intensity of psychoactivity,[1]; oral tablet 50 mg,correlates with blood levels
"CC(C)N(CCc1c[nH]c2cccc(O)c12)C(C)C [Example 4-HO-DIPT, 4-hydroxy-N,N-diisopropyltryptamine]",Intensity of the HTR versus plasma concentration of 4-HO-DIPT,[2],proportional to the plasma concentration
"CC(C)N(CCc1c[nH]c2cccc(OC(=O)CCCC(=O)O)c12)C(C)C [Example 6, N,N diisopropyltryptamine-4-glutarate]",Percentage of remaining prodrug,[3]; 0 h,100%
same,Percentage of remaining prodrug,[3]; 0.004 h,0%
same,Percentage of remaining prodrug,[3]; 0.5 h,0%
same,Percentage of remaining prodrug,[3]; 1 h,0%
same,Percentage of remaining prodrug,[3]; 2 h,0%
same,Percentage of remaining prodrug,[3]; 4 h,0%
same,Percentage of remaining prodrug,[4]; 0 h,100%
same,Percentage of remaining prodrug,[4]; 0.004 h,0%
same,Percentage of remaining prodrug,[4]; 0.5 h,0%
same,Percentage of remaining prodrug,[4]; 1 h,0%
same,Percentage of remaining prodrug,[4]; 2 h,0%
same,Percentage of remaining prodrug,[4]; 4 h,0%
same,Percentage of remaining prodrug,[5]; 0 h,100%
same,Percentage of remaining prodrug,[5]; 0.004 h,100%
same,Percentage of remaining prodrug,[5]; 0.5 h,87%
same,Percentage of remaining prodrug,[5]; 1 h,79%
same,Percentage of remaining prodrug,[5]; 2 h,64%
same,Percentage of remaining prodrug,[5]; 4 h,39%
same,Percentage of remaining prodrug,[6]; 0 h,100%
same,Percentage of remaining prodrug,[6]; 0.004 h,100%
same,Percentage of remaining prodrug,[6]; 0.5 h,3.0%
same,Percentage of remaining prodrug,[6]; 1 h,0.23%
same,Percentage of remaining prodrug,[6]; 2 h,0%
same,Percentage of remaining prodrug,[6]; 4 h,0%
same,Percentage of remaining prodrug,[7]; 0 h,100%
same,Percentage of remaining prodrug,[7]; 0.004 h,100%
same,Percentage of remaining prodrug,[7]; 0.5 h,100%
same,Percentage of remaining prodrug,[7]; 1 h,100%
same,Percentage of remaining prodrug,[7]; 4 h,101%
same,Percentage of remaining prodrug,[8]; 0 h,100%
same,Percentage of remaining prodrug,[8]; 4 h,93%
same,solubility,[9],≤ 50 mg/mL
same,Subjective effects: intensity of psychoactivity,"[1]; subcutaneous injection, 0.1-0.6 mg/kg",correlates with blood levels
same,Time after which the patient reports no longer feeling the effects of the drug,[10],4 h
"CC(C)N(CCc1c[nH]c2cccc(OC(=O)CCCC(=O)O)c12)C(C)C.Cl [Example 9, HCl salt of N,N diisopropyltryptamine-4-glutarate]",Prodrug in blood samples after injection,[11],not observed
